Experimental data as given in US20140335021A1, “Ocular Neostigmine Drops for Diagnosing Myasthenia Gravis” (priority 2013, published 2014).

Legend:
[1] = system: New Zealand White rabbits; experiment: Ocular inflammation on daily instillation for 7 days in rabbits; format: in vivo; conditions: one drop daily for 7 days, rabbit eye
Description: (§1) 2) experiments in which the standard IV neostigmine solution was instilled into both eyes of patients with probable or definite symptomatic MG.
(§2) The pupil size of both the right and left eyes of each rabbit was measured at baseline in mms by using a plastic ruler. After instilling the neostigmine solution (right eye) or saline (left eye), the pupil size was measured again at 30 minute intervals following drug or saline instillation. One drop of neostimine was instilled daily for 7 days and signs of ocular inflammation were observed.

[2] = system: New Zealand White rabbits; experiment: Pupillary size after ocular instillation of neostigmine solution in rabbits; format: in vivo, rabbit; conditions: for mean [SD] pupillary size, right eye: saline left eye 7.0 mm, p=0.0001
Description: as §1
(§3) Both sets of experiments used the standard neostigmine (2.5 mg/ml) solution available in hospitals for anesthetic/surgical use for reversal of neuromuscular block. This solution is buffered and FDA-approved for use in humans. In both sets of experiments, one drop of this solution was used in an eye, limiting substantially the amount of drug that might be absorbed systemically.
Male New Zealand White rabbits (2.5-3.0 kg body weight) were used in all experiments. The animals were kept in a room of controlled room temperature (24.0+1.0° C.) and humidity and a fixed dark light cycle (light on at 7:00 am and off at 19:00 pm).
The sterile neostigmine solution (2.5 mg/ml) was instilled into the right eye (one drop), while the control eye (left eye) received one drop of sterile saline (0.9% sodium chloride). Assessment of pupillary size was done at 30 minute intervals following instillation of neostigmine. The left eye of each rabbit acted as control for the right one.
The amount of neostigmine methylsulphate was calculated to be 0.1 mg/drop. Therefore, each rabbit's eye was instilled by 0.1 mg of sterile neostigmine methylsulphate. The sterile dropper for instilling neostigmine was used only once and then discarded. To prevent the drop of neostigmine from leaking out of the rabbit's eye, the lower eye lid of the rabbits was held out for at least 2-3 minutes in order to keep the drop inside the eye and allow for better absorption of the drug through the cornea.
as §2
The mean values for the pupil sizes of the right eyes were recorded as well as those of the left eyes, separately. Paired t-test was used for comparison of data among the different groups on SPSS software. A probability value of <0.05 was considered to be significant.

[3] = system: patients with probable or definite MG; experiment: Ocular neostigmine drop test for ptosis in patients with probable or definite myasthenia gravis; format: in vivo, human
Description: as §1, §3
Patients with probable or definite MG were asked to sign informed consent approved by the appropriate Institutional Ethics Committees. Ptosis was recorded photographically, and pulse and blood pressure were also recorded prior to beginning the test. One drop of standard IV neostigmine solution (2.5 mg/ml) was instilled into each symptomatic eye of the patient. Fifteen minutes later, possible changes in ptosis were assessed. Pulse and blood pressure was recorded again and after another 15 minutes. At 30 minutes, the patient was evaluated also for possible changes in ptosis (documented by photography), obvious irritation of either eye and for report of discomfort.
Six patients (3 males and 3 females) who presented with ptosis and/or ocular motility disturbance were enrolled in the study. Their ages ranged between 4.5 and 55 years (median=42 years, mean=36.4 years). […]

CN(C)C(=O)Oc1cccc([N+](C)(C)C)c1 [neostigmine, 3-(trimethylamino)phenyl N,N-dimethylcarbamate]
ocular inflammation [1]: no ocular inflammation | pupil diameter, right eye, representative rabbit (FIG. 2) ([2]; 1 week after daily instillation of 1 drop, last drop 24 hours previously): 6.0 mm | pupil diameter, right eye, representative rabbit (FIG. 2) ([2]; 30 mins post neostigmine, pre 6.0 mm): 2.0 mm | mean [SD] pupillary size, right eye ([2]; 30 minutes after one drop of 2.5 mg/ml solution (0.1 mg) in right eye, 30 rabbits): 4.8 mm | pupil diameter, right eye, representative rabbit (FIG. 2) ([2]; 60 mins post neostigmine, pre 6.0 mm): 1.5 mm | mean [SD] pupillary size, right eye ([2]; 60 minutes after one drop of 2.5 mg/ml solution (0.1 mg) in right eye): 4.8 mm | response of ptosis (palpebral fissure height) ([3]; 3 patients with no prior treatment for MG (Patients 1, 2 and 5)): dramatic | increase of the palpebral fissure height ([3]; all 6 patients with MG, 30 minutes after instillation of one drop 2.5 mg/ml per symptomatic eye): at least 2 mm
